Key:
Pseudomonas aeruginosa [1] = type: functional; conditions: isolate Paebeta-11
Pseudomonas aeruginosa [2] = type: functional; conditions: isolate Paebeta-29
Pseudomonas aeruginosa [3] = type: functional; conditions: isolate Paebeta-30
Pseudomonas aeruginosa [4] = type: functional; conditions: isolate Paebeta-02
Pseudomonas aeruginosa [5] = type: functional; conditions: isolate Paebeta-23
Pseudomonas aeruginosa [6] = type: functional; conditions: isolate Paebeta-12
Pseudomonas aeruginosa [7] = type: functional; conditions: isolate Paebeta-04
Pseudomonas aeruginosa [8] = type: functional; conditions: isolate Paebeta-27
Pseudomonas aeruginosa [9] = type: functional; conditions: isolate Paebeta-14
Pseudomonas aeruginosa [10] = type: functional; conditions: isolate Paebeta-24
Pseudomonas aeruginosa [11] = type: functional; conditions: isolate Paebeta-15
Pseudomonas aeruginosa [12] = type: functional; conditions: isolate Paebeta-27; remark: listed apart in the source
Pseudomonas aeruginosa [13] = type: functional; conditions: isolate Paebeta-18
Pseudomonas aeruginosa [14] = type: functional; conditions: isolate Paebeta-19
Pseudomonas aeruginosa [15] = type: functional; conditions: isolate Paebeta-23; remark: listed apart in the source
Pseudomonas aeruginosa [16] = type: functional; conditions: isolate Paebeta-08
Pseudomonas aeruginosa [17] = type: functional; conditions: isolate Paebeta-13
Pseudomonas aeruginosa [18] = type: functional; conditions: isolate Paebeta-14; remark: listed apart in the source
Pseudomonas aeruginosa [19] = type: functional; conditions: isolate Paebeta-07
Pseudomonas aeruginosa [20] = type: functional; conditions: isolate Paebeta-15; remark: listed apart in the source
Pseudomonas aeruginosa [21] = type: functional; conditions: isolate Paebeta-25
Pseudomonas aeruginosa [22] = type: functional; conditions: isolate Paebeta-31
Pseudomonas aeruginosa [23] = type: functional; conditions: isolate Paebeta-26
Pseudomonas aeruginosa [24] = type: functional; conditions: isolate Paebeta-24; remark: listed apart in the source
Pseudomonas aeruginosa [25] = type: functional; conditions: isolate Paebeta-25; remark: listed apart in the source
Pseudomonas aeruginosa [26] = type: functional; conditions: isolate Paebeta-05
Pseudomonas aeruginosa [27] = type: functional; conditions: isolate Paebeta-09
Pseudomonas aeruginosa [28] = type: functional; conditions: isolate Paebeta-01
Pseudomonas aeruginosa [29] = type: functional; conditions: isolate Paebeta-17
Pseudomonas aeruginosa [30] = type: functional; conditions: isolate Paebeta-16
Pseudomonas aeruginosa [31] = type: functional; conditions: isolate Paebeta-13; remark: listed apart in the source
Pseudomonas aeruginosa [32] = experiment: microbe, parasite or virus in culture; conditions: isolate Paebeta-12
Description: Antibacterial activity against mexB, mexY and mexD expressing Pseudomonas aeruginosa isolate Paebeta-12 harboring A residue at 105 position in PDC- 2 and polymorphic OprD gene by Etest method in presence of cloxacillin

Pseudomonas aeruginosa [33] = type: functional; conditions: isolate Paebeta-26; remark: listed apart in the source
Pseudomonas aeruginosa [34] = type: functional; conditions: isolate Paebeta-06
Pseudomonas aeruginosa [35] = type: functional; conditions: isolate Paebeta-05; remark: listed apart in the source
Pseudomonas aeruginosa [36] = type: functional; conditions: isolate Paebeta-17; remark: listed apart in the source
Pseudomonas aeruginosa [37] = type: functional; conditions: isolate Paebeta-32
Pseudomonas aeruginosa [38] = type: functional; conditions: isolate Paebeta-32; remark: listed apart in the source
Pseudomonas aeruginosa [39] = type: functional; conditions: isolate Paebeta-06; remark: listed apart in the source
Pseudomonas aeruginosa [40] = type: functional; conditions: isolate Paebeta-08; remark: listed apart in the source
Pseudomonas aeruginosa [41] = type: functional; conditions: isolate Paebeta-10
Pseudomonas aeruginosa [42] = type: functional; conditions: isolate Paebeta-21
Pseudomonas aeruginosa [43] = type: functional; conditions: isolate Paebeta-29; remark: listed apart in the source
Pseudomonas aeruginosa [44] = type: functional; conditions: isolate Paebeta-31; remark: listed apart in the source
Pseudomonas aeruginosa [45] = type: functional; conditions: isolate Paebeta-07; remark: listed apart in the source
Pseudomonas aeruginosa [46] = type: functional; conditions: isolate Paebeta-28
Pseudomonas aeruginosa [47] = type: functional; conditions: isolate Paebeta-22
Pseudomonas aeruginosa [48] = type: functional; conditions: isolate Paebeta-18; remark: listed apart in the source
Pseudomonas aeruginosa [49] = type: functional; conditions: isolate Paebeta-11; remark: listed apart in the source
Pseudomonas aeruginosa [50] = type: functional; conditions: isolate Paebeta-03
Pseudomonas aeruginosa [51] = type: functional; conditions: isolate Paebeta-02; remark: listed apart in the source
Pseudomonas aeruginosa [52] = type: functional; conditions: isolate Paebeta-09; remark: listed apart in the source
Pseudomonas aeruginosa [53] = type: functional; conditions: isolate Paebeta-01; remark: listed apart in the source
Pseudomonas aeruginosa [54] = type: functional; conditions: isolate Paebeta-28; remark: listed apart in the source
Pseudomonas aeruginosa [55] = type: functional; conditions: isolate Paebeta-30; remark: listed apart in the source
Pseudomonas aeruginosa [56] = type: functional; conditions: isolate Paebeta-20
Pseudomonas aeruginosa [57] = type: functional; conditions: isolate Paebeta-22; remark: listed apart in the source
Pseudomonas aeruginosa [58] = type: functional; conditions: isolate Paebeta-04; remark: listed apart in the source
Pseudomonas aeruginosa [59] = type: functional; conditions: isolate Paebeta-20; remark: listed apart in the source
Pseudomonas aeruginosa [60] = type: functional; conditions: isolate Paebeta-03; remark: listed apart in the source
Pseudomonas aeruginosa [61] = type: functional; conditions: isolate Paebeta-19; remark: listed apart in the source
Pseudomonas aeruginosa [62] = type: functional; conditions: isolate Paebeta-21; remark: listed apart in the source
Pseudomonas aeruginosa [63] = type: functional; conditions: isolate Paebeta-16; remark: listed apart in the source
Pseudomonas aeruginosa [64] = type: functional; conditions: isolate Paebeta-10; remark: listed apart in the source

Measured: MIC

CC(C)(O/N=C(\C(=O)N[C@@H]1C(=O)N2C(C(=O)[O-])=C(C[n+]3ccccc3)CS[C@H]12)c1csc(N)n1)C(=O)O [CEFTAZIDIME]
0.12 µg/mL: Pseudomonas aeruginosa [31]
4 µg/mL: Pseudomonas aeruginosa [7] | Pseudomonas aeruginosa [8] | Pseudomonas aeruginosa [14] | Pseudomonas aeruginosa [17] | Pseudomonas aeruginosa [21] | Pseudomonas aeruginosa [23] | Pseudomonas aeruginosa [42] | Pseudomonas aeruginosa [63]
16 µg/mL: Pseudomonas aeruginosa [1] | Pseudomonas aeruginosa [6] | Pseudomonas aeruginosa [9] | Pseudomonas aeruginosa [12] | Pseudomonas aeruginosa [19] | Pseudomonas aeruginosa [22] | Pseudomonas aeruginosa [24] | Pseudomonas aeruginosa [39] | Pseudomonas aeruginosa [40] | Pseudomonas aeruginosa [41] | Pseudomonas aeruginosa [46] | Pseudomonas aeruginosa [52] | Pseudomonas aeruginosa [57] | Pseudomonas aeruginosa [60]
2 µg/mL: Pseudomonas aeruginosa [16] | Pseudomonas aeruginosa [18] | Pseudomonas aeruginosa [27] | Pseudomonas aeruginosa [34] | Pseudomonas aeruginosa [45] | Pseudomonas aeruginosa [49] | Pseudomonas aeruginosa [50] | Pseudomonas aeruginosa [54] | Pseudomonas aeruginosa [64]
8 µg/mL: Pseudomonas aeruginosa [2] | Pseudomonas aeruginosa [3] | Pseudomonas aeruginosa [4] | Pseudomonas aeruginosa [5] | Pseudomonas aeruginosa [11] | Pseudomonas aeruginosa [28] | Pseudomonas aeruginosa [29] | Pseudomonas aeruginosa [37] | Pseudomonas aeruginosa [43] | Pseudomonas aeruginosa [51] | Pseudomonas aeruginosa [53] | Pseudomonas aeruginosa [55] | Pseudomonas aeruginosa [56] | Pseudomonas aeruginosa [61]
32 µg/mL: Pseudomonas aeruginosa [13] | Pseudomonas aeruginosa [20] | Pseudomonas aeruginosa [25] | Pseudomonas aeruginosa [26] | Pseudomonas aeruginosa [30] | Pseudomonas aeruginosa [33] | Pseudomonas aeruginosa [35] | Pseudomonas aeruginosa [38] | Pseudomonas aeruginosa [44] | Pseudomonas aeruginosa [58] | Pseudomonas aeruginosa [62]
1 µg/mL: Pseudomonas aeruginosa [32] | Pseudomonas aeruginosa [47] | Pseudomonas aeruginosa [59]
64 µg/mL: Pseudomonas aeruginosa [10] | Pseudomonas aeruginosa [15] | Pseudomonas aeruginosa [36]
128 µg/mL: Pseudomonas aeruginosa [48]

C[C@@H](O)[C@H]1C(=O)N2C(C(=O)O)=C(SCCNC=N)C[C@H]12 [IMIPENEM ANHYDROUS]
8 µg/mL: Pseudomonas aeruginosa [3] | Pseudomonas aeruginosa [5] | Pseudomonas aeruginosa [21] | Pseudomonas aeruginosa [24] | Pseudomonas aeruginosa [25] | Pseudomonas aeruginosa [29] | Pseudomonas aeruginosa [55] | Pseudomonas aeruginosa [57]
4 µg/mL: Pseudomonas aeruginosa [7] | Pseudomonas aeruginosa [14] | Pseudomonas aeruginosa [23] | Pseudomonas aeruginosa [54] | Pseudomonas aeruginosa [59] | Pseudomonas aeruginosa [63]
1 µg/mL: Pseudomonas aeruginosa [32]
32 µg/mL: Pseudomonas aeruginosa [10] | Pseudomonas aeruginosa [12] | Pseudomonas aeruginosa [15] | Pseudomonas aeruginosa [30] | Pseudomonas aeruginosa [36]
64 µg/mL: Pseudomonas aeruginosa [38] | Pseudomonas aeruginosa [48]
2 µg/mL: Pseudomonas aeruginosa [16] | Pseudomonas aeruginosa [18] | Pseudomonas aeruginosa [27] | Pseudomonas aeruginosa [34] | Pseudomonas aeruginosa [42] | Pseudomonas aeruginosa [45] | Pseudomonas aeruginosa [49] | Pseudomonas aeruginosa [50] | Pseudomonas aeruginosa [64]
16 µg/mL: Pseudomonas aeruginosa [1] | Pseudomonas aeruginosa [2] | Pseudomonas aeruginosa [6] | Pseudomonas aeruginosa [8] | Pseudomonas aeruginosa [9] | Pseudomonas aeruginosa [13] | Pseudomonas aeruginosa [17] | Pseudomonas aeruginosa [19] | Pseudomonas aeruginosa [20] | Pseudomonas aeruginosa [22] | Pseudomonas aeruginosa [26] | Pseudomonas aeruginosa [35] | Pseudomonas aeruginosa [37] | Pseudomonas aeruginosa [39] | Pseudomonas aeruginosa [40] | Pseudomonas aeruginosa [41] | Pseudomonas aeruginosa [43] | Pseudomonas aeruginosa [44] | Pseudomonas aeruginosa [46] | Pseudomonas aeruginosa [52] | Pseudomonas aeruginosa [56] | Pseudomonas aeruginosa [58] | Pseudomonas aeruginosa [60] | Pseudomonas aeruginosa [62]
0.5 µg/mL: Pseudomonas aeruginosa [31] | Pseudomonas aeruginosa [47]

C[C@@H](O)[C@H]1C(=O)N2C(C(=O)O)=C(S[C@@H]3CN[C@H](C(=O)N(C)C)C3)[C@H](C)[C@H]12 [MEROPENEM]
1 µg/mL: Pseudomonas aeruginosa [47]
32 µg/mL: Pseudomonas aeruginosa [2] | Pseudomonas aeruginosa [10] | Pseudomonas aeruginosa [13] | Pseudomonas aeruginosa [43] | Pseudomonas aeruginosa [62]
16 µg/mL: Pseudomonas aeruginosa [7] | Pseudomonas aeruginosa [15] | Pseudomonas aeruginosa [24] | Pseudomonas aeruginosa [38] | Pseudomonas aeruginosa [42] | Pseudomonas aeruginosa [58]
8 µg/mL: Pseudomonas aeruginosa [1] | Pseudomonas aeruginosa [3] | Pseudomonas aeruginosa [5] | Pseudomonas aeruginosa [6] | Pseudomonas aeruginosa [17] | Pseudomonas aeruginosa [19] | Pseudomonas aeruginosa [20] | Pseudomonas aeruginosa [21] | Pseudomonas aeruginosa [22] | Pseudomonas aeruginosa [25] | Pseudomonas aeruginosa [26] | Pseudomonas aeruginosa [28] | Pseudomonas aeruginosa [35] | Pseudomonas aeruginosa [36] | Pseudomonas aeruginosa [37] | Pseudomonas aeruginosa [39] | Pseudomonas aeruginosa [40] | Pseudomonas aeruginosa [41] | Pseudomonas aeruginosa [44] | Pseudomonas aeruginosa [52] | Pseudomonas aeruginosa [53] | Pseudomonas aeruginosa [55] | Pseudomonas aeruginosa [56] | Pseudomonas aeruginosa [60]
4 µg/mL: Pseudomonas aeruginosa [4] | Pseudomonas aeruginosa [9] | Pseudomonas aeruginosa [11] | Pseudomonas aeruginosa [14] | Pseudomonas aeruginosa [23] | Pseudomonas aeruginosa [27] | Pseudomonas aeruginosa [29] | Pseudomonas aeruginosa [30] | Pseudomonas aeruginosa [33] | Pseudomonas aeruginosa [46] | Pseudomonas aeruginosa [50] | Pseudomonas aeruginosa [51] | Pseudomonas aeruginosa [54] | Pseudomonas aeruginosa [57] | Pseudomonas aeruginosa [59] | Pseudomonas aeruginosa [61] | Pseudomonas aeruginosa [64]
2 µg/mL: Pseudomonas aeruginosa [16] | Pseudomonas aeruginosa [18] | Pseudomonas aeruginosa [31] | Pseudomonas aeruginosa [32] | Pseudomonas aeruginosa [34] | Pseudomonas aeruginosa [45] | Pseudomonas aeruginosa [49] | Pseudomonas aeruginosa [63]
